Laboratory results taken from PubChem BioAssay (NCI).
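A five-concentration, 48-hour dose response in 96-well plates underlies each endpoint, interpolated linearly between surrounding concentrations. GI50 is the concentration that inhibits growth by half. TGI is the concentration that stops growth completely.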

Key:
Assay in all cases: growth of human tumour cells (NCI), 48 h
SF-539 CNS = tested on: SF-539 CNS
T-47D breast = tested on: T-47D breast
BT-549 breast = tested on: BT-549 breast
HS 578T breast = tested on: HS 578T breast
NCI-H226 lung = tested on: NCI-H226 lung
NCI-H23 lung = tested on: NCI-H23 lung
SK-MEL-2 melanoma = tested on: SK-MEL-2 melanoma
SNB-75 CNS = tested on: SNB-75 CNS
ACHN renal = tested on: ACHN renal
NCI-H460 lung = tested on: NCI-H460 lung
SN12C renal = tested on: SN12C renal
SR leukemia = tested on: SR leukemia
UACC-62 melanoma = tested on: UACC-62 melanoma
UACC-257 melanoma = tested on: UACC-257 melanoma
M14 melanoma = tested on: M14 melanoma
UO-31 renal = tested on: UO-31 renal
MOLT-4 leukemia = tested on: MOLT-4 leukemia
COLO 205 colon = tested on: COLO 205 colon
K-562 leukemia = tested on: K-562 leukemia
HOP-92 NSCLC = tested on: HOP-92 NSCLC
NCI/ADR-RES ovarian = tested on: NCI/ADR-RES ovarian
NCI-H522 lung = tested on: NCI-H522 lung
HT29 colon = tested on: HT29 colon
786-0 renal = tested on: 786-0 renal
CAKI-1 renal = tested on: CAKI-1 renal
SK-MEL-28 melanoma = tested on: SK-MEL-28 melanoma
KM12 colon = tested on: KM12 colon
SK-OV-3 ovarian = tested on: SK-OV-3 ovarian
A549 NSCLC = tested on: A549 NSCLC
U251 CNS = tested on: U251 CNS
SK-MEL-5 melanoma = tested on: SK-MEL-5 melanoma
OVCAR-5 ovarian = tested on: OVCAR-5 ovarian
RXF 393 renal = tested on: RXF 393 renal
DU-145 prostate = tested on: DU-145 prostate
IGROV1 ovarian = tested on: IGROV1 ovarian
HCC-2998 colon = tested on: HCC-2998 colon
TK-10 renal = tested on: TK-10 renal
OVCAR-8 ovarian = tested on: OVCAR-8 ovarian
EKVX NSCLC = tested on: EKVX NSCLC
SF-268 CNS = tested on: SF-268 CNS
CCRF-CEM leukemia = tested on: CCRF-CEM leukemia
SNB-19 CNS = tested on: SNB-19 CNS
HL-60(TB) leukemia = tested on: HL-60(TB) leukemia
HOP-62 NSCLC = tested on: HOP-62 NSCLC
OVCAR-4 ovarian = tested on: OVCAR-4 ovarian
OVCAR-3 ovarian = tested on: OVCAR-3 ovarian
HCT-116 colon = tested on: HCT-116 colon
MCF7 breast = tested on: MCF7 breast
PC-3 prostate = tested on: PC-3 prostate
A498 renal = tested on: A498 renal
MDA-MB-435 = tested on: MDA-MB-435
RPMI-8226 leukemia = tested on: RPMI-8226 leukemia
MDA-MB-231 breast = tested on: MDA-MB-231 breast
SF-295 CNS = tested on: SF-295 CNS
LOX IMVI melanoma = tested on: LOX IMVI melanoma
SW-620 colon = tested on: SW-620 colon
HCT-15 colon = tested on: HCT-15 colon
MALME-3M melanoma = tested on: MALME-3M melanoma

CCCCCCCCCc1ccc(OCCOCCOCCOCCOCCOCCOCCOCCOCCO)cc1
GI50 (SF-539 CNS): 949 nM
TGI (SF-539 CNS): 2670 nM
GI50 (T-47D breast): 224 nM
TGI (T-47D breast): 2750 nM
GI50 (BT-549 breast): 590 nM
TGI (BT-549 breast): 1610 nM
GI50 (HS 578T breast): 1170 nM
TGI (HS 578T breast): 9030 nM
GI50 (NCI-H226 lung): 561 nM
TGI (NCI-H226 lung): 1770 nM
GI50 (NCI-H23 lung): 257 nM
TGI (NCI-H23 lung): 3260 nM
GI50 (SK-MEL-2 melanoma): 876 nM
TGI (SK-MEL-2 melanoma): 1960 nM
GI50 (SNB-75 CNS): 881 nM
TGI (SNB-75 CNS): 2480 nM
GI50 (ACHN renal): 1190 nM
TGI (ACHN renal): 5700 nM
GI50 (NCI-H460 lung): 301 nM
TGI (NCI-H460 lung): 1650 nM
GI50 (SN12C renal): 610 nM
TGI (SN12C renal): 1590 nM
GI50 (SR leukemia): 437 nM
TGI (SR leukemia): 1910 nM
GI50 (UACC-62 melanoma): 379 nM
TGI (UACC-62 melanoma): 1250 nM
GI50 (UACC-257 melanoma): 56.7 nM
TGI (UACC-257 melanoma): 812 nM
GI50 (M14 melanoma): 892 nM
TGI (M14 melanoma): 2130 nM
GI50 (UO-31 renal): 733 nM
TGI (UO-31 renal): 4820 nM
GI50 (MOLT-4 leukemia): 704 nM
TGI (MOLT-4 leukemia): 2150 nM
GI50 (COLO 205 colon): 243 nM
TGI (COLO 205 colon): 829 nM
GI50 (K-562 leukemia): 332 nM
TGI (K-562 leukemia): 7270 nM
GI50 (HOP-92 NSCLC): 792 nM
TGI (HOP-92 NSCLC): 3070 nM
GI50 (NCI/ADR-RES ovarian): 268 nM
TGI (NCI/ADR-RES ovarian): 3940 nM
GI50 (NCI-H522 lung): 302 nM
TGI (NCI-H522 lung): 1390 nM
GI50 (HT29 colon): 685 nM
TGI (HT29 colon): 1980 nM
GI50 (786-0 renal): 1020 nM
TGI (786-0 renal): 4120 nM
GI50 (CAKI-1 renal): 478 nM
TGI (CAKI-1 renal): 5750 nM
GI50 (SK-MEL-28 melanoma): 895 nM
TGI (SK-MEL-28 melanoma): 2020 nM
GI50 (KM12 colon): 598 nM
TGI (KM12 colon): 4020 nM
GI50 (SK-OV-3 ovarian): 991 nM
TGI (SK-OV-3 ovarian): 2450 nM
GI50 (A549 NSCLC): 414 nM
TGI (A549 NSCLC): 3690 nM
GI50 (U251 CNS): 458 nM
TGI (U251 CNS): 1250 nM
GI50 (SK-MEL-5 melanoma): 136 nM
TGI (SK-MEL-5 melanoma): 643 nM
GI50 (OVCAR-5 ovarian): 1100 nM
TGI (OVCAR-5 ovarian): 3540 nM
GI50 (RXF 393 renal): 1030 nM
TGI (RXF 393 renal): 3370 nM
GI50 (DU-145 prostate): 1240 nM
TGI (DU-145 prostate): 4650 nM
GI50 (IGROV1 ovarian): 999 nM
TGI (IGROV1 ovarian): 4320 nM
GI50 (HCC-2998 colon): 750 nM
TGI (HCC-2998 colon): 1850 nM
GI50 (TK-10 renal): 745 nM
TGI (TK-10 renal): 1930 nM
GI50 (OVCAR-8 ovarian): 231 nM
TGI (OVCAR-8 ovarian): 2710 nM
GI50 (EKVX NSCLC): 452 nM
TGI (EKVX NSCLC): 5780 nM
GI50 (SF-268 CNS): 685 nM
TGI (SF-268 CNS): 3370 nM
GI50 (CCRF-CEM leukemia): 305 nM
TGI (CCRF-CEM leukemia): 2040 nM
GI50 (SNB-19 CNS): 617 nM
TGI (SNB-19 CNS): 2730 nM
GI50 (HL-60(TB) leukemia): 310 nM
TGI (HL-60(TB) leukemia): 1370 nM
GI50 (HOP-62 NSCLC): 412 nM
TGI (HOP-62 NSCLC): 1050 nM
GI50 (OVCAR-4 ovarian): 131 nM
TGI (OVCAR-4 ovarian): 5040 nM
GI50 (OVCAR-3 ovarian): 428 nM
TGI (OVCAR-3 ovarian): 2290 nM
GI50 (HCT-116 colon): 374 nM
TGI (HCT-116 colon): 1590 nM
GI50 (MCF7 breast): 328 nM
TGI (MCF7 breast): 1960 nM
GI50 (PC-3 prostate): 89.8 nM
TGI (PC-3 prostate): 1180 nM
GI50 (A498 renal): 665 nM
TGI (A498 renal): 3800 nM
GI50 (MDA-MB-435): 832 nM
TGI (MDA-MB-435): 3050 nM
GI50 (RPMI-8226 leukemia): 36.8 nM
TGI (RPMI-8226 leukemia): 1760 nM
GI50 (MDA-MB-231 breast): 668 nM
TGI (MDA-MB-231 breast): 1510 nM
GI50 (SF-295 CNS): 304 nM
TGI (SF-295 CNS): 1960 nM
GI50 (LOX IMVI melanoma): 230 nM
TGI (LOX IMVI melanoma): 996 nM
GI50 (SW-620 colon): 1190 nM
TGI (SW-620 colon): 5550 nM
GI50 (HCT-15 colon): 761 nM
TGI (HCT-15 colon): 1840 nM
GI50 (MALME-3M melanoma): 646 nM
TGI (MALME-3M melanoma): 1630 nM
